Test results from the supplement of paper PMC13380429.

Tests used:
Conditions in all cases: 72 h
Calu-3 [1] = experiment: drug sensitivity score (DSS) for viability; higher = more toxic; extreme values may be limits of the assay
HepG2 [2] = experiment: as above
Caco-2 [3] = experiment: as above
Vero E6 [4] = experiment: as above
Calu-3 [5] = experiment: relative viability EC50 (midpoint between 100% and the lowest measured viability); higher = less toxic
HepG2 [6] = experiment: as above
Caco-2 [7] = experiment: as above
Vero E6 [8] = experiment: as above
Calu-3 [9] = experiment: cell viability relative to DMSO; higher = less toxic
HepG2 [10] = experiment: as above
Caco-2 [11] = experiment: as above
Vero E6 [12] = experiment: as above
U2OS [13] = experiment: drug sensitivity score (DSS) for viability; higher = more toxic; extreme values may be limits of the assay
U2OS [14] = experiment: relative viability EC50 (midpoint between 100% and the lowest measured viability); higher = less toxic
U2OS [15] = experiment: cell viability relative to DMSO; higher = less toxic

CC(=O)Nc1ccc(OCC(O)CNC(C)C)cc1 (configuration not stated) [practolol]
drug sensitivity score (Calu-3 [1]): 0
drug sensitivity score (HepG2 [2]): 0
drug sensitivity score (Caco-2 [3]): 0.4
drug sensitivity score (Vero E6 [4]): 0
relative viability EC50 (Calu-3 [5]): > 10 µM
relative viability EC50 (HepG2 [6]): > 10 µM
relative viability EC50 (Caco-2 [7]): > 10 µM
relative viability EC50 (Vero E6 [8]): > 10 µM
cell viability (Calu-3 [9]; 1 nM): 108%
cell viability (Calu-3 [9]; 10 nM): 114%
cell viability (Calu-3 [9]; 100 nM): 111%
cell viability (Calu-3 [9]; 1000 nM): 100%
cell viability (Calu-3 [9]; 10000 nM): 99.7%
cell viability (HepG2 [10]; 1 nM): 94.1%
cell viability (HepG2 [10]; 10 nM): 105%
cell viability (HepG2 [10]; 100 nM): 97.3%
cell viability (HepG2 [10]; 1000 nM): 109%
cell viability (HepG2 [10]; 10000 nM): 87.3%
cell viability (Caco-2 [11]; 1 nM): 107%
cell viability (Caco-2 [11]; 10 nM): 93.5%
cell viability (Caco-2 [11]; 100 nM): 81.2%
cell viability (Caco-2 [11]; 1000 nM): 91.7%
cell viability (Caco-2 [11]; 10000 nM): 92%
cell viability (Vero E6 [12]; 1 nM): 110%
cell viability (Vero E6 [12]; 10 nM): 102%
cell viability (Vero E6 [12]; 100 nM): 106%
cell viability (Vero E6 [12]; 1000 nM): 106%
cell viability (Vero E6 [12]; 10000 nM): 93.7%

CCCN(CCC)C(=O)C(CCC(=O)O)NC(=O)c1ccccc1 (configuration not stated) [proglumide]
drug sensitivity score (Calu-3 [1]): 0
drug sensitivity score (HepG2 [2]): 0
drug sensitivity score (Caco-2 [3]): 0
drug sensitivity score (Vero E6 [4]): 0
relative viability EC50 (Calu-3 [5]): > 10 µM
relative viability EC50 (HepG2 [6]): > 10 µM
relative viability EC50 (Caco-2 [7]): > 10 µM
relative viability EC50 (Vero E6 [8]): > 10 µM
cell viability (Calu-3 [9]; 1 nM): 100%
cell viability (Calu-3 [9]; 10 nM): 113%
cell viability (Calu-3 [9]; 100 nM): 104%
cell viability (Calu-3 [9]; 1000 nM): 89.9%
cell viability (Calu-3 [9]; 10000 nM): 96.2%
cell viability (HepG2 [10]; 1 nM): 98%
cell viability (HepG2 [10]; 10 nM): 104%
cell viability (HepG2 [10]; 100 nM): 107%
cell viability (HepG2 [10]; 1000 nM): 109%
cell viability (HepG2 [10]; 10000 nM): 106%
cell viability (Caco-2 [11]; 1 nM): 102%
cell viability (Caco-2 [11]; 10 nM): 105%
cell viability (Caco-2 [11]; 100 nM): 95.7%
cell viability (Caco-2 [11]; 1000 nM): 104%
cell viability (Caco-2 [11]; 10000 nM): 102%
cell viability (Vero E6 [12]; 1 nM): 104%
cell viability (Vero E6 [12]; 10 nM): 100%
cell viability (Vero E6 [12]; 100 nM): 98.8%
cell viability (Vero E6 [12]; 1000 nM): 97.8%
cell viability (Vero E6 [12]; 10000 nM): 107%

c1ccc2c(c1)CCCC2C1=NCCN1 (configuration not stated) [tetrahydrozoline]
drug sensitivity score (Calu-3 [1]): 0
drug sensitivity score (HepG2 [2]): 0
drug sensitivity score (Caco-2 [3]): 0
drug sensitivity score (Vero E6 [4]): 0.7
relative viability EC50 (Calu-3 [5]): > 10 µM
relative viability EC50 (HepG2 [6]): > 10 µM
relative viability EC50 (Caco-2 [7]): > 10 µM
cell viability (Calu-3 [9]; 1 nM): 109%
cell viability (Calu-3 [9]; 10 nM): 97.9%
cell viability (Calu-3 [9]; 100 nM): 112%
cell viability (Calu-3 [9]; 1000 nM): 110%
cell viability (Calu-3 [9]; 10000 nM): 99.5%
cell viability (HepG2 [10]; 1 nM): 93%
cell viability (HepG2 [10]; 10 nM): 104%
cell viability (HepG2 [10]; 100 nM): 91.2%
cell viability (HepG2 [10]; 1000 nM): 100%
cell viability (HepG2 [10]; 10000 nM): 104%
cell viability (Caco-2 [11]; 1 nM): 105%
cell viability (Caco-2 [11]; 10 nM): 101%
cell viability (Caco-2 [11]; 100 nM): 99%
cell viability (Caco-2 [11]; 1000 nM): 92.5%
cell viability (Caco-2 [11]; 10000 nM): 106%
cell viability (Vero E6 [12]; 1 nM): 68.7%
cell viability (Vero E6 [12]; 10 nM): 103%
cell viability (Vero E6 [12]; 100 nM): 61.2%
cell viability (Vero E6 [12]; 1000 nM): 108%
cell viability (Vero E6 [12]; 10000 nM): 68.4%

COc1cc2ncc(-c3ccccc3)nc2cc1OC [tyrphostin-AG-1296]
drug sensitivity score (Calu-3 [1]): 0
drug sensitivity score (HepG2 [2]): 0
drug sensitivity score (Caco-2 [3]): 0
drug sensitivity score (Vero E6 [4]): 0
relative viability EC50 (Calu-3 [5]): > 10 µM
relative viability EC50 (HepG2 [6]): > 10 µM
relative viability EC50 (Caco-2 [7]): > 10 µM
relative viability EC50 (Vero E6 [8]): > 10 µM
cell viability (Calu-3 [9]; 1 nM): 102%
cell viability (Calu-3 [9]; 10 nM): 86.2%
cell viability (Calu-3 [9]; 100 nM): 91.3%
cell viability (Calu-3 [9]; 1000 nM): 84.8%
cell viability (Calu-3 [9]; 10000 nM): 100%
cell viability (HepG2 [10]; 1 nM): 107%
cell viability (HepG2 [10]; 10 nM): 108%
cell viability (HepG2 [10]; 100 nM): 98.1%
cell viability (HepG2 [10]; 1000 nM): 106%
cell viability (HepG2 [10]; 10000 nM): 95.8%
cell viability (Caco-2 [11]; 1 nM): 92.7%
cell viability (Caco-2 [11]; 10 nM): 104%
cell viability (Caco-2 [11]; 100 nM): 91.6%
cell viability (Caco-2 [11]; 1000 nM): 96.2%
cell viability (Caco-2 [11]; 10000 nM): 95.4%
cell viability (Vero E6 [12]; 1 nM): 95.4%
cell viability (Vero E6 [12]; 10 nM): 99.8%
cell viability (Vero E6 [12]; 100 nM): 96.3%
cell viability (Vero E6 [12]; 1000 nM): 98%
cell viability (Vero E6 [12]; 10000 nM): 99.5%

C[C@]1(c2nc3c(C(N)=O)cccc3[nH]2)CCCN1 [veliparib]
drug sensitivity score (Calu-3 [1]): 0
drug sensitivity score (HepG2 [2]): 0
drug sensitivity score (U2OS [13]): 0
relative viability EC50 (Calu-3 [5]): > 10 µM
relative viability EC50 (HepG2 [6]): > 10 µM
relative viability EC50 (U2OS [14]): > 10 µM
cell viability (Calu-3 [9]; 1 nM): 105%
cell viability (Calu-3 [9]; 10 nM): 100%
cell viability (Calu-3 [9]; 100 nM): 100%
cell viability (Calu-3 [9]; 1000 nM): 111%
cell viability (Calu-3 [9]; 10000 nM): 92.1%
cell viability (HepG2 [10]; 1 nM): 105%
cell viability (HepG2 [10]; 10 nM): 107%
cell viability (HepG2 [10]; 100 nM): 106%
cell viability (HepG2 [10]; 1000 nM): 96.1%
cell viability (HepG2 [10]; 10000 nM): 101%
cell viability (U2OS [15]; 1 nM): 96.7%
cell viability (U2OS [15]; 10 nM): 104%
cell viability (U2OS [15]; 100 nM): 96.8%
cell viability (U2OS [15]; 1000 nM): 106%
cell viability (U2OS [15]; 10000 nM): 96.6%
